Experimental data from publication PMC11945486, “TAS1R2/TAS1R3 Single-Nucleotide Polymorphisms Affect Sweet Taste Receptor Activation by Sweeteners: The SWEET Project” (Nutrients, 2025).
Like-named read-outs stand apart in the source and are kept apart here. No end group written: not given here.

B1: thaumatin (protein)
chain: ATFEIVNRCSYTVWAAASKGDAALDAGGRQLNSGESWTINVEPGTKGGKIWARTDCYFDDSGSGICKTGDCGGLLRCKRFGRPPTTLAEFSLNQYGKDYIDISNIKGFNVPMDFSPTTRGCRGVRCAADIVGQCPAKLKAPGGGCNDACTVFQTSEYCCTTGKCGPTEYSRFFKRLCPDAFSYVLDKPTTVTCPGSSNYRVTFCPTA
modifications: Eight disulfides
notes: sweet-tasting plant protein, E957

Biological target: T1, human TAS1R2-WT/TAS1R3-WT (Homo sapiens, UniProt Q7RTX0+Q8TE23)
T1 construct: expressed in transfected cells; host or cells: HEK293T-Gα16gust44
T1 sequence (Q8TE23 20-839): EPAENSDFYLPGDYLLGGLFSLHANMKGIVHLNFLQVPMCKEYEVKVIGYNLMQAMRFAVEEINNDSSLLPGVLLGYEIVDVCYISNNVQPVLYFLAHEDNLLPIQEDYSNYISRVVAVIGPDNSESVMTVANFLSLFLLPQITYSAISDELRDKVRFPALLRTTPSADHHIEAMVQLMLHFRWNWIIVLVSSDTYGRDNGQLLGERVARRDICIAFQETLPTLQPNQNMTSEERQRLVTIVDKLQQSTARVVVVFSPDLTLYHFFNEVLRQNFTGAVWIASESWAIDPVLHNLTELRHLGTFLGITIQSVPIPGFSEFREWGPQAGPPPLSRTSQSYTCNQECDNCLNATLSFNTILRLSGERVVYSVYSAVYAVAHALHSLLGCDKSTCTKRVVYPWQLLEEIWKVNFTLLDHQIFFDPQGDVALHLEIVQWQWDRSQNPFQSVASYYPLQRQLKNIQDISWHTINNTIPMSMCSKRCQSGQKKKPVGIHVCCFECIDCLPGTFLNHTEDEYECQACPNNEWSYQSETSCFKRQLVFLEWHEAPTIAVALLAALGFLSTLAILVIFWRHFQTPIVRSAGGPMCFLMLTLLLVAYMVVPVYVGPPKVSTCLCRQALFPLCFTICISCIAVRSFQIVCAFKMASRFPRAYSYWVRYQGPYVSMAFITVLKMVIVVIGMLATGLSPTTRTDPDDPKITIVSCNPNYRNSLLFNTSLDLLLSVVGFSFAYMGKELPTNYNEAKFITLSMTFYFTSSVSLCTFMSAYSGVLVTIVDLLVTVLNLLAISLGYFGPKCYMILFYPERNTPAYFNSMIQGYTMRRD
T1 sequence (Q7RTX0 21-852): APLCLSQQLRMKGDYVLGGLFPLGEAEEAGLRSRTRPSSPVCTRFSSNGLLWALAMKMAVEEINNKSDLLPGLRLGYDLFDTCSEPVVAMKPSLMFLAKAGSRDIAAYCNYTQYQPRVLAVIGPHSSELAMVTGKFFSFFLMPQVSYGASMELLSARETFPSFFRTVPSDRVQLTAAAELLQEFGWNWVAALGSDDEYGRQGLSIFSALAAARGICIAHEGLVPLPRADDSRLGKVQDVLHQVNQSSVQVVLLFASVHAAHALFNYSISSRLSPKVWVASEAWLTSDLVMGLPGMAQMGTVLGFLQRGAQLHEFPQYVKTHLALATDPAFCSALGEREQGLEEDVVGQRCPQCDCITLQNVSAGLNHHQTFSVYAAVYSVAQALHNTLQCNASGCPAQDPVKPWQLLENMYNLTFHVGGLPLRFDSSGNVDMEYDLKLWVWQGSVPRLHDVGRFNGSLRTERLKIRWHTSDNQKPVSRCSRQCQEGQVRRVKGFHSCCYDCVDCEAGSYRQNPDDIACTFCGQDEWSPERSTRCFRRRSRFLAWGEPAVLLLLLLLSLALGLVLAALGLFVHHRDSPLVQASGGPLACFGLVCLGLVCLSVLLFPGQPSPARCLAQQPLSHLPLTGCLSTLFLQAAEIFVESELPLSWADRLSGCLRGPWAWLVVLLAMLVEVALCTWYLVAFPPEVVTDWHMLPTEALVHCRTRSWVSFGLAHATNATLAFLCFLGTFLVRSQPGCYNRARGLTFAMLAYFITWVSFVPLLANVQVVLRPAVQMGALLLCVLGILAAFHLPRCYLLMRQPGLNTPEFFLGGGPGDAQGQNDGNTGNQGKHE
Assay: Calcium mobilisation assay, HEK293T-Gα16gust44 cells, human sweet taste receptor WT
Format: cell-based
Conditions: for Max ΔF/F0: maximal signal amplitude
Source text: The coding sequences for TAS1R2 and TAS1R3 were commercially synthesised, and the human codon was optimised for expression in human cells. The coding sequences of human TAS1R2 and TAS1R3 were subcloned and inserted into the mammalian expression vectors pcDNA6/myc-HisA and pcDNA4/myc-HisA (Invitrogen; Thermo Fisher Scientific; Illkirch, France) between the EcoRI and NotI restriction sites, generating the plasmids pcDNA6-TAS1R2 and pcDNA4-TAS1R3, respectively. To increase protein expression in mammalian cells, an upstream start codon was used, which was a sequence called MAX, corresponding to the QBI SP163 element also described in pcDNA4-HisMax (Invitrogen; Thermo Fisher Scientific; Illkirch, France). To measure the expression level of the receptor by immunohistochemistry, we used the FLAG sequence ([…]) in the C-terminal position, which encodes the FLAG tag epitope. SNP variants of TAS1R2 and TAS1R3 were constructed based on […], respectively, using site-directed mutagenesis (Genewiz; Leipzig, Germany).
The HEK293T cells were kindly provided by Jay P. Slack (Givaudan Flavors Corporation; Cincinnati, OH, USA). HEK293T cells stably transfected with Gα16gust44 [43, 67] were seeded in poly-D-lysine-coated clear-bottom black 96-well plates (0.35 × 10^5 cells/well) in high-glucose DMEM supplemented with 2 mM GlutaMAX, 10% dialysed foetal bovine serum with penicillin/streptomycin and G418 (400 μg/mL) at 37 °C and 6.3% CO2 in a humidified atmosphere as previously reported. […] As a negative control, HEK293T cells were mock-transfected with the empty expression vector. After a further 24 h of incubation, the HEK293T cells were washed with C1 buffer (130 mM NaCl, 5 mM KCl, 10 mM HEPES pH 7.4 and 2 mM CaCl2). The 96-well plates containing the cells were then stimulated with sweet-tasting compounds. […] Different concentration ranges were tested depending on the sweet compound injected. The Ca^2+ changes were expressed as fractional changes in fluorescent light intensity: ΔF/F = (F − F0)/F0, where F was the fluorescent light intensity at each point, and F0 was the value of emitted fluorescent light prior to stimulus application. To calculate dose–response relationships, the changes in fluorescence upon stimulus application were averaged, mock-subtracted and baseline-corrected. The dose–response data obtained were adjusted using a 4-parameter logistic equation. The half-maximal effective concentrations (EC50 values) and maximal signal amplitudes were calculated using SigmaPlot software (version 15.0) (Systat Software; San Jose, CA, USA).
For in vitro calcium mobilisation assay performed on hTAS1R2-SNPs, hTAS1R3-SNPs and mTAS1R3-I60T, 6 to 7 concentrations were tested for each sweet compound, plus buffer alone. All concentration–receptor combinations were measured in duplicate, and each experiment was repeated at least 4 times (8 wells/concentration). Results were expressed for each concentration as ΔF/F mean ± SEM and represented as dose–response curves.

[1] = TAS1R2-WT + TAS1R3-WT, read-out: EC50
[2] = TAS1R2-WT/TAS1R3-WT, read-out: EC50

| Molecule | R1 = Variant EC50/WT EC50 (TAS1R2-WT + TAS1R3-WT) | Max ΔF/F0 (TAS1R2-WT + TAS1R3-WT) | EC50 [1] | R1 = Variant EC50/WT EC50 (TAS1R2-WT/TAS1R3-WT) | Max ΔF/F0 (TAS1R2-WT/TAS1R3-WT) | EC50 [2] | EC50 (TAS1R2-WT/TAS1R3-WT, brazzein) |
| --- | --- | --- | --- | --- | --- | --- | --- |
| CC1=CC(=O)NS(=O)(=O)O1 [Acesulfame K, acesulfame K] | 1.0 | 0.31 ± 0.01 | 705 ± 7 µM | 1.0 | 0.28 ± 0.01 | 622 ± 45 µM |  |
| O=S(=O)(O)NC1CCCCC1 [Cyclamate, cyclamate] |  |  | 1890 ± 46 µM |  |  | 1590 ± 28 µM |  |
| C[C@H](CC[C@@H](O[C@@H]1O[C@H](CO[C@@H]2O[C@H](CO)[C@@H](O)[C@H](O)[C@H]2O)[C@@H](O)[C@H](O)[C@H]1O[C@@H]1O[C@H](CO)[C@@H](O)[C@H](O)[C@H]1O)C(C)(C)O)[C@H]1CC[C@@]2(C)[C@@H]3CC=C4[C@@H](CC[C@H](O[C@@H]5O[C@H](CO[C@@H]6O[C@H](CO)[C@@H](O)[C@H](O)[C@H]6O)[C@@H](O)[C@H](O)[C@H]5O)C4(C)C)[C@]3(C)[C@H](O)C[C@]12C [Mogroside V, mogroside V] | 1.0 | 1.28 ± 0.03 | 17.3 ± 1.2 µM | 1.0 | 0.93 ± 0.01 | 31.3 ± 0.8 µM |  |
| COc1ccc(CCC(=O)c2c(O)cc(O[C@@H]3O[C@H](CO)[C@@H](O)[C@H](O)[C@H]3O[C@@H]3O[C@@H](C)[C@H](O)[C@@H](O)[C@H]3O)cc2O)cc1O [NHDC, neohesperidin dihydrochalcone] | 1.0 | 0.71 ± 0.02 | 76.7 ± 4.4 µM | 1.0 | 1.13 ± 0.01 | 50.3 ± 11 µM |  |
| COC(=O)[C@H](Cc1ccccc1)NC(=O)[C@H](CC(=O)O)NCCC(C)(C)C [Neotame] | 1.0 | 0.56 ± 0.03 | 0.84 ± 0.13 µM | 1.0 | 0.65 ± 0.02 | 1.22 ± 0.11 µM |  |
| C=C(C)[C@@H]1CC=C(/C=N/O)CC1 [Perillartine, perillartine] | 1.0 | 1.47 ± 0.07 | 17.5 ± 2.2 µM | 1.0 | 1.51 ± 0.22 | 13.8 ± 6.3 µM |  |
| C=C1C[C@@]23CC[C@H]4[C@@](C)(CCC[C@@]4(C)C(=O)O[C@@H]4O[C@H](CO)[C@@H](O)[C@H](O[C@@H]5O[C@H](CO)[C@@H](O)[C@H](O)[C@H]5O)[C@H]4O[C@@H]4O[C@H](CO)[C@@H](O)[C@H](O)[C@H]4O)[C@@H]2CC[C@]1(O[C@@H]1O[C@H](CO)[C@@H](O)[C@H](O[C@@H]2O[C@H](CO)[C@@H](O)[C@H](O)[C@H]2O)[C@H]1O[C@@H]1O[C@H](CO)[C@@H](O)[C@H](O)[C@H]1O)C3 [Rebaudioside M, rebaudioside M] | 1.0 | 1.12 ± 0.01 | 16.9 ± 0.5 µM | 1.0 | 0.69 ± 0.02 | 40.4 ± 2.9 µM |  |
| OC[C@H]1O[C@H](O[C@]2(CCl)O[C@H](CCl)[C@@H](O)[C@@H]2O)[C@H](O)[C@@H](O)[C@H]1Cl [Sucralose] | 1.0 | 0.59 ± 0.03 | 90 ± 11 µM | 1.0 | 0.65 ± 0.01 | 109 ± 4 µM |  |
| brazzein (QDKCKKVYENYPVSKCQLANQCNYDCKLDKHARSGECFYDEKRNLQCICDYCEY; ends and bridges not checked; cysteine pairing not given here; UniProt P56552 1-54, looked up) [sweet-tasting protein obtained by recombinant production using the yeast Pichia pastoris] | 1.0 | 1.17 ± 0.04 |  | 1.0 | 0.88 ± 0.03 |  | 112.8 ± 11.2 µg/mL |
| thaumatin | 1.0 | 0.72 ± 0.01 |  | 1.0 | 0.57 ± 0.02 |  |  |
| B1 |  |  | 7.6 ± 0.3 µM |  |  | 10.4 ± 0.6 µM |  |
